System: A2780
Test: Antiproliferative activity against drug-sensitive human A2780 cells
Assay type: functional, cell-based

Row | SMILES | IC50 [µM]
1 | COc1ccc(CCCc2cc(O)c(OC)c(O)c2)c(O)c1O [BUSSEALIN A] | 36
2 | COc1cc(OC)c(OC)cc1CCCc1ccc(OC)c(O)c1O [BUSSEALIN D] | 40
3 | COc1c(O)c2c3c(oc4c(OC)c(O)cc(c43)CCC2)c1OC [BUSSEALIN E] | 45

Other lines, results leading:

Row | IC50 [µM] | SMILES
4 | 36 | COc1ccc(CCCc2ccc(OC)c(O)c2O)cc1O [BUSSEALIN C]
5 | 24 | COc1cc(OC)c(CCCc2ccc(OC)c(O)c2O)cc1O [BUSSEALIN B]

From ChEMBL document CHEMBL1629496, “Four diphenylpropanes and a cycloheptadibenzofuran from Bussea sakalava from the Madagascar dry forest” (J Nat Prod, 2010)
